According to ChEMBL document CHEMBL5137095, “N-Benzyl Benzamide Derivatives as Selective Sub-Nanomolar Butyrylcholinesterase Inhibitors for Possible Treatment in Advanced Alzheimer's Disease” (J Med Chem, 2022):

What was measured:
BV-2 [1] = experiment: Cytotoxicity against mouse BV-2 cells assessed as reduction in cell viability at 20 uM by MTT assay; type: toxicity, cell-based; settings: bv-2, 20 µM
BV-2 [2] = experiment: Cytotoxicity against mouse BV-2 cells assessed as reduction in cell viability at 10 uM by MTT assay; type: toxicity, cell-based; settings: bv-2, 10 µM
Cholinesterase [3] = biological target: T1, Cholinesterase (Homo sapiens, UniProt P06276); experiment: Inhibition of human BChE using acetylthiocholine iodide or butyrylthiocholine iodide as substrate preincubated for 5 mins followed by substrate addition by Ellman's method
T1 sequence (P06276 whole entry): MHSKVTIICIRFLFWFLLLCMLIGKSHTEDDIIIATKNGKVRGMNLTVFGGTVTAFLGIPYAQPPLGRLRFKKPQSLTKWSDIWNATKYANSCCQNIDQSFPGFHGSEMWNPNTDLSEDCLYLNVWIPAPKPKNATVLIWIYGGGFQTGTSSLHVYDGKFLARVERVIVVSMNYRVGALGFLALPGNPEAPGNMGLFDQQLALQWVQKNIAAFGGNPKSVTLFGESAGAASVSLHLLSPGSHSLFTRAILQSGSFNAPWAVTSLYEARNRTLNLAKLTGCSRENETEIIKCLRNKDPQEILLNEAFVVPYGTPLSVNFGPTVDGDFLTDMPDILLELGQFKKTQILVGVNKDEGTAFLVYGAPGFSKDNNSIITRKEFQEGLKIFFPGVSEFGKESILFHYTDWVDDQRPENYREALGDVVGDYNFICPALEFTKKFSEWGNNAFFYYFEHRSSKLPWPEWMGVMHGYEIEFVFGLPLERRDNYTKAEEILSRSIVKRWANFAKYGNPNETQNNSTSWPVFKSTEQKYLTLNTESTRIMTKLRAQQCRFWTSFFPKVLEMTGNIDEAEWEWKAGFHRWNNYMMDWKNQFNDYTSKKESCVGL

Cholinesterase [4] = biological target: T1, Cholinesterase; experiment: Inhibition of human BChE assessed as inhibition constant
Cholinesterase [5] = biological target: T1, Cholinesterase; experiment: Binding affinity to human BChE assessed as dissociation constant by surface plasmon resonance assay
[6] = n-octanol-water partition coefficient, log P of the compound by HPLC analysis; type: physicochemical
[7] = Permeability of compound incubated for 18 hrs by PAMPA-BBB assay; type: ADME; settings: read-out: permeability
HT-22 [8] = experiment: Cytotoxicity against mouse HT-22 cells assessed as reduction in cell viability at 10 uM by MTT assay; type: toxicity, cell-based; settings: ht-22, 10 µM
PC-12 [9] = experiment: Cytotoxicity against rat PC-12 cells assessed as reduction in cell viability at 10 uM by MTT assay; type: toxicity, cell-based; settings: pc-12, 10 µM
SH-SY5Y [10] = experiment: Cytotoxicity against human SH-SY5Y cells assessed as reduction in cell viability at 10 uM by MTT assay; type: toxicity, cell-based
[11] = Cytotoxicity against mouse BV-2 cells assessed as cell survival rate at 10 uM by MTT assay; type: toxicity, cell-based; settings: read-out: Activity
[12] = Cytotoxicity against mouse HT-22 cells assessed as cell survival rate at 10 uM by MTT assay; type: toxicity, cell-based; settings: read-out: Activity
[13] = Cytotoxicity against rat PC-12 cells assessed as cell survival rate at 10 uM by MTT assay; type: toxicity, cell-based; settings: read-out: Activity
[14] = Cytotoxicity against human SH-SY5Y cells assessed as cell survival rate at 10 uM by MTT assay; type: toxicity, cell-based; settings: read-out: Activity
HT-22 [15] = experiment: Cytotoxicity against mouse HT-22 cells assessed as reduction in cell viability at 20 uM by MTT assay; type: toxicity, cell-based; settings: ht-22, 20 µM
PC-12 [16] = experiment: Cytotoxicity against rat PC-12 cells assessed as reduction in cell viability at 20 uM by MTT assay; type: toxicity, cell-based; settings: pc-12, 20 µM
SH-SY5Y [17] = experiment: Cytotoxicity against human SH-SY5Y cells assessed as reduction in cell viability at 20 uM by MTT assay; type: toxicity, cell-based
PC-12 [18] = experiment: Neuroprotective activity against H2O2-induced cell damage in rat PC-12 cells assessed as survival rate at 5 to 10 uM pretreated for 2 hrs followed by H2O2 addition and measured after 24 hrs by MTT assay; type: functional; settings: dose 5-10 µM, time 26 hrs
SH-SY5Y [19] = experiment: Neuroprotective activity against amyloid beta (1 to 42)-induced cell damage in human SH-SY5Y cells assessed as cell survival rate at 25 uM pretreated for 2 hrs followed by amyloid beta (1 to 42) addition and measured after 24 hrs by MTT assay; type: functional; settings: time 26 hrs
SH-SY5Y [20] = experiment: Neuroprotective activity against amyloid beta (1 to 42)-induced cell damage in human SH-SY5Y cells assessed as cell survival at 2 uM pretreated for 2 hrs followed by amyloid beta (1 to 42) addition and measured after 24 hrs by MTT assay; type: functional; settings: time 26 hrs, read-out: Activity
[21] = Acute toxicity in ICR mouse assessed as death at 1000 mg/kg, po measured after 4 hrs; type: organism-based; settings: in vivo
[22] = Acute toxicity in ICR mouse assessed as effect on consumption of water and food at 1000 mg/kg, po measured after 14 days; type: organism-based; settings: in vivo, 336 h, time 14 day
[23] = Acute toxicity in ICR mouse assessed as increase in body weight at 1000 mg/kg, po measured after 14 days; type: organism-based; settings: in vivo, 336 h, time 14 day
[24] = Elimination half life in Sprague-Dawley rat at 10 mg/kg, IG measured after 48 hrs by LC-MS analysis; type: ADME, organism-based; settings: in vivo, po, read-out: beta t1/2 (converted)
[25] = Elimination half life in Sprague-Dawley rat at 10 mg/kg, iv measured after 48 hrs by LC-MS analysis; type: ADME, organism-based; settings: in vivo, read-out: beta t1/2 (converted)
[26] = Tmax in Sprague-Dawley rat at 10 mg/kg, IG measured after 48 hrs by LC-MS analysis; type: ADME, organism-based; settings: in vivo, po
[27] = Tmax in Sprague-Dawley rat at 10 mg/kg, iv measured after 48 hrs by LC-MS analysis; type: ADME, organism-based; settings: in vivo
[28] = Cmax in Sprague-Dawley rat at 10 mg/kg, IG measured after 48 hrs by LC-MS analysis; type: ADME, organism-based; parameters: time 48 hrs, dose 10 mg/kg, route ig; settings: in vivo, po
[29] = Cmax in Sprague-Dawley rat at 10 mg/kg, iv measured after 48 hrs by LC-MS analysis; type: ADME, organism-based; parameters: dose 10 mg/kg, time 48 hrs, route iv; settings: in vivo
[30] = AUC (0 to infinitive) in Sprague-Dawley rat at 10 mg/kg, IG measured after 48 hrs by LC-MS analysis; type: ADME, organism-based; parameters: dose 10 mg/kg, time 48 hrs, route ig; settings: in vivo, po
[31] = AUC (0 to infinitive) in Sprague-Dawley rat at 10 mg/kg, iv measured after 48 hrs by LC-MS analysis; type: ADME, organism-based; parameters: time 48 hrs, dose 10 mg/kg, route iv; settings: in vivo
[32] = Oral bioavailability in Sprague-Dawley rat at 10 mg/kg measured after 48 hrs by LC-MS analysis; type: ADME, organism-based; settings: in vivo
[33] = Microsomal stability in human liver microsomes assessed as half life measured after 120 mins; type: ADME, Microsome
[34] = Plasma concentration in ICR mouse at 10 mg/kg, po measured at 0.25 hrs by LC-MS analysis; type: ADME, organism-based
[35] = Plasma concentration in ICR mouse at 10 mg/kg, IG measured at 0.5 hrs by LC-MS analysis; type: ADME, organism-based; settings: po
[36] = Plasma concentration in ICR mouse at 10 mg/kg, po measured at 1 hr by LC-MS analysis; type: ADME, organism-based
[37] = Plasma concentration in ICR mouse at 10 mg/kg, IG measured at 2 hrs by LC-MS analysis; type: ADME, organism-based; settings: po
[38] = Plasma concentration in ICR mouse at 10 mg/kg, IG measured at 4 hrs by LC-MS analysis; type: ADME, organism-based; settings: po
[39] = Plasma concentration in ICR mouse at 10 mg/kg, IG measured at 6 hrs by LC-MS analysis; type: ADME, organism-based; settings: po
[40] = Brain concentration in ICR mouse at 10 mg/kg, IG measured at 0.25 hrs by LC-MS analysis; type: ADME, organism-based; settings: po, read-out: Ct
[41] = Brain concentration in ICR mouse at 10 mg/kg, IG measured at 0.5 hrs by LC-MS analysis; type: ADME, organism-based; settings: po, read-out: Ct
[42] = Brain concentration in ICR mouse at 10 mg/kg, IG measured at 1 hr by LC-MS analysis; type: ADME, organism-based; settings: po, read-out: Ct
[43] = Brain concentration in ICR mouse at 10 mg/kg, IG measured at 2 hrs by LC-MS analysis; type: ADME, organism-based; settings: po, read-out: Ct
[44] = Brain concentration in ICR mouse at 10 mg/kg, IG measured at 4 hrs by LC-MS analysis; type: ADME, organism-based; settings: po, read-out: Ct
[45] = Brain concentration in ICR mouse at 10 mg/kg, IG measured at 6 hrs by LC-MS analysis; type: ADME, organism-based; settings: po, read-out: Ct

For `CCN(CC)Cc1ccccc1CNC(=O)c1cccc(NC(=O)c2ccc(F)cc2)c1`, the Activity (BV-2 [1]) was “Non-Toxic”, the Activity (BV-2 [2]) was “Non-Toxic” and the IC50 (Cholinesterase [3]) was 0.08 nM. For the same compound, the Ki (Cholinesterase [4]) was 0.61 nM, the Kd (Cholinesterase [5]) was 0.37 nM and the logP [6] was 1.7. For the same compound, the Papp at 18 h [7] was 10.2 ×10⁻⁶ cm/s, the Activity (HT-22 [8]) was “Non-Toxic” and the Activity (PC-12 [9]) was “Non-Toxic”. For the same compound, the Activity (SH-SY5Y [10]) was “Non-Toxic”, the viability at 10 µM [11] was over 70% and the viability at 10 µM [12] was over 70%. The viability at 10 µM [13] was over 70%, the viability at 10 µM [14] was over 70% and the Activity (HT-22 [15]) was “Non-Toxic”. The Activity (PC-12 [16]) was “Non-Toxic”, the Activity (SH-SY5Y [17]) was “Non-Toxic” and the Activity (PC-12 [18]) was 61.7%. For the same compound, the Activity (SH-SY5Y [19]) was 64.12%, the viability at 2 µM (SH-SY5Y [20]) was 68% and the Activity [21] was “Non-Toxic”. The Activity [22] was “Non-Toxic”, the Activity [23] was “Non-Toxic” and the half-life [24] was 28.1 h. It also gave a half-life [25] of 17.2 h, a Tmax [26] of 0.63 h and a Tmax [27] of 6 min. It also gave a Cmax [28] of 36.4 ng/mL, a Cmax [29] of 1640 ng/mL and an AUC(0-inf) [30] of 497 ng·h/mL. The AUC(0-inf) [31] was 2170 ng·h/mL, the bioavailability [32] was 21.7% and the half-life [33] was 1.55 h. It also gave a concentration at 0.25 h [34] of 25.7 ng/mL, a concentration at 0.5 h [35] of 30.2 ng/mL and a concentration at 1 h [36] of 20.9 ng/mL. The concentration at 2 h [37] was 18.4 ng/mL, the concentration at 4 h [38] was 17.4 ng/mL and the concentration at 6 h [39] was 2.95 ng/mL. The concentration at 0.25 h [40] was 25.4 ng/g, the concentration at 0.5 h [41] was 26.8 ng/g and the concentration at 1 h [42] was 37.5 ng/g. For the same compound, the concentration at 2 h [43] was 17.7 ng/g, the concentration at 4 h [44] was 16.4 ng/g and the concentration at 6 h [45] was 15.3 ng/g.
